The values below come from patent US6974806B2, “Lipid-rich plaque inhibitors” (Takeda Pharmaceutical Company Limited, priority 2000, dated 2005).

`CCOC(=O)C=Cc1cccc(-c2c(CC(=O)Nc3ccc(F)cc3C(F)(F)F)c(=O)oc3cc(Cl)c(C)cc23)c1` [Example 337]: the melting point (as a rule, the temperature, or range, at which the solid turns liquid) was in the range of 193 to 196 °C.
In the case of `COc1cccc(OC)c1NC(=O)Cc1c(-c2ccccc2)c2cc(Cl)c(C)cc2oc1=O` [Example 22] it was 231 to 232 °C; in that of `CC(=O)OCc1cc2c(-c3ccccc3)c(CC(=O)Nc3c(C(C)C)cccc3C(C)C)c(=O)oc2cc1Cl` [Example 81, [7-chloro-3-{2-(2,6-isopropylanilino)-2-oxoethyl}-2-oxo-4-phenyl-2H-chromen-6-yl]]methyl acetate], 290 to 292 °C; in that of `O=C(Cc1c(-c2ccccc2)c2cc(F)c(F)cc2oc1=O)Nc1c(OC2CCCC2)cccc1OC1CCCC1` [Example 44], 253 to 254 °C.
Molecule `CCc1cccc(CC)c1NC(=O)Cc1c(-c2ccccc2)c2cc3c(cc2oc1=O)CCC3` [Example 4] yielded a melting point of 279 to 281 °C.
For `CC(C)c1cccc(C(C)C)c1NC(=O)Cc1c(-c2ccccc2)c2cc(CN3CCOCC3)c(Cl)cc2oc1=O` [Example 73] the value was 296 to 298 °C.
On to `O=C(Cc1c(-c2ccccc2)c2cc(CN3CCN(c4ncccn4)CC3)c(Cl)cc2oc1=O)Nc1ccc(F)cc1C(F)(F)F` [Example 273], for which the melting point is 203 to 205 °C.
As to `COc1cccc(OC)c1NC(=O)Cc1c(-c2ccccc2)c2cc3c(cc2oc1=O)CCC3` [Example 1, N-(2,6-dimethoxyphenyl)-2-(2-oxo-4-phenyl-2,6,7,8-tetrahydrocyclopenta[g]chromen-3-yl)acetamide], the melting point is 213 to 215 °C.
In the case of `COc1cccc(OC)c1NC(=O)Nc1oc2cc3c(cc2c1-c1ccccc1C)CCC3` [Example 102, N-(2,6-Dimethoxyphenyl)-N′-[3-(2-methylphenyl)-6,7-dihydro-5H-indeno[5,6-b]furan-2-yl]urea] it was 208 °C (dec.).
Consider `O=C(Cc1c(-c2ccccc2)c2cc(CN3CCOCC3)c(Cl)cc2oc1=O)Nc1ccc(Cl)cc1C(F)(F)F` [Example 74, 2-[7-chloro-6-{(morpholin-4-yl)methyl}-2-oxo-4-phenyl-2H-chromen-3-yl]-N-(4-chloro-2-trifluoromethylphenyl)acetamide], for which the melting point fell in the range of 205 to 207 °C.
In the case of `O=C(Cc1c(-c2ccccc2)c2cc(Cl)c(CO)cc2oc1=O)Nc1ccc(Cl)cc1C(F)(F)F` [Example 87] it was 220 to 222 °C; in that of `O=C(Cc1c(-c2ccccc2)c2cc3c(cc2oc1=O)CCC3)Nc1ccc(F)cc1C(F)(F)F` [Example 20], 186 to 187 °C.
In the case of `O=C(Cc1c(-c2ccccc2)c2cc3c(cc2oc1=O)CCC3)Nc1c(F)cccc1C(F)(F)F` [Example 18], the melting point lay in the range of 194 to 196 °C.
As to `CCc1cccc(CC)c1NC(=O)Cc1c(-c2ccccc2)c2cc(Cl)c(C)cc2oc1=O` [Example 26], the melting point is 250 to 251 °C.
In turn, `O=C(Cc1c(-c2ccccc2)c2cc3c(cc2oc1=O)CCC3)Nc1c(F)cc(F)cc1F` [Example 17] registered a melting point of 247 to 249 °C.
In the case of `CCOc1cccc(OCC)c1NC(=O)Cc1c(-c2ccccc2)c2cc3c(cc2oc1=O)CCC3` [Example 2] it was 216 to 219 °C; in that of `CC(C)c1cccc(C(C)C)c1NC(=O)Cc1c(-c2ccccc2)c2cc(CN(C)C)c(Cl)cc2oc1=O` [Example 72], 301 to 303 °C.
In the case of `COc1cc2c(-c3ccccc3)c(CC(=O)Nc3ccc(Cl)cc3C(F)(F)F)c(=O)oc2cc1Cl` [Example 178, 2-(7-chloro-6-methoxy-2-oxo-4-phenyl-2H-chromen-3-yl)-N-[4-chloro-2-(trifluoromethyl)phenyl]acetamide] it was 246 to 247 °C; in that of `CCc1cccc(CC)c1NC(=O)Cc1c(-c2ccccc2)c2cc(C)c(C)cc2oc1=O` [Example 30], 259 to 260 °C; in that of `Cc1cc2c(-c3cccnc3)c(CC(=O)Nc3ccc(Cl)cc3C(F)(F)F)c(=O)oc2cc1Cl` [Example 329], 212 to 215 °C.
